Patent US20040254178A1, “Substituted heterocyclic compounds and methods of use” (Amgen Inc., priority 2003, published 2004)

Tested on: LPS induced TNF release
Test: Lipopolysaccharide-Activated THP1 Cell TNF Production Assay
Type: cell-based
Conditions: Homo sapiens, THP-1, THP1 cells, 3 h at 37° C., secreted TNF-α read by ECL
Protocol: Lipopolysaccharide-Activated THP1 Cell TNF Production Assay
THP1 cells are resuspended in fresh THP1 media (RPMI 1640, 10% heat-inactivated FBS, 1XPGS, 1XNEAA, plus 30 μM βME) at a concentration of 1E6/mL. One hundred microliters of cells per well are plated in a polystyrene 96-well tissue culture. One microgram per mL of bacterial LPS is prepared in THP1 media and is transferred to the wells. Test compounds are dissolved in 100% DMSO and are serially diluted 3 fold in a polypropylene 96-well microtiter plate (drug plate). HI control and LO control wells contain only DMSO. One microliter of test compound from the drug plate followed by 10 μL of LPS are transferred to the cell plate. The treated cells are induced to synthesize and secrete TNF-α at 37° C. for 3 h. Forty microliters of conditioned media are transferred to a 96-well polypropylene plate containing 110 μL of ECL buffer (50 mM Tris-HCl pH 8.0, 100 mM NaCl, 0.05% Tween 20, 0.05% NaN3 and 1% FBS) supplemented with 0.44 nM MAB610 monoclonal Ab (R&D Systems), 0.34 nM ruthenylated AF210NA polyclonal Ab (R&D Systems) and 44 μg/mL sheep anti-mouse M280 Dynabeads (Dynal). After a 2 h incubation at room temperature with shaking, the reaction is read on the ECL M8 Instrument (IGEN Inc.). A low voltage is applied to the ruthenylated TNF-α immune complexes, which in the presence of TPA (the active component in Origlo), results in a cyclical redox reaction generating light at […]. The amount of secreted TNF-α in the presence of compound compared with that in the presence of DMSO vehicle alone (HI control) is calculated using the formula: % control (POC)=(cpd−average LO)/(average HI−average LO)*100. Data (consisting of POC and inhibitor concentration in μM) is fitted to a 4-parameter equation (y=A+((B−A)/(1+((x/C)^D))), where A is the minimum y (POC) value, B is the maximum y (POC), C is the x (cpd concentration) at the point of inflection and D is the slope factor) using a Levenburg-Marquardt non-linear regression algorithm.

| IC50 [µM] | Structure (SMILES) |
| --- | --- |
| ≤ 20 | Cc1c(C2CCN(C(=O)OCc3ccccc3)CC2)nnc(-c2cccc(C(F)(F)F)c2)c1-c1ccnc(NC(C)c2ccccc2)n1 (stereo not drawn) [4-[4-Methyl-5-[2-(1-phenyl-ethylamino)-pyrimidin-4-yl]-6-(3-trifluoromethylphenyl)-pyridazin-3-yl]-piperidine-1-carboxylic acid benzyl ester] |
| ≤ 20 | Cc1c(C2CCN(C(=O)[C@@H](C)O)CC2)nnc(-c2cccc(C(F)(F)F)c2)c1-c1ccnc(NC(C)c2ccccc2)n1 (stereo in doubt) [2-Hydroxy-1-{4-[4-methyl-5-[2-(1-phenyl-ethylamino)-pyrimidin-4-yl]-6-(3-trifluoromethyl-phenyl)-pyridazin-3-yl]-piperidin-1-yl}-propan-1-one] |
| ≤ 20 | Cc1c(C2CCNCC2)nnc(-c2cccc(C(F)(F)F)c2)c1-c1ccnc(NC(C)c2ccccc2)n1 (stereo not drawn) [{4-[5-Methyl-6-piperidin-4-yl-3-(3-trifluoromethyl-phenyl)-pyridazin-4-yl]-pyrimidin-2-yl}-(1-phenyl-ethyl)-amine] |
